# Data reported in US20230413819A1, “METHODS FOR CONTROLLING FLEA AND TICK INFESTATIONS IN A MAMMAL” (In the Bowl Animal Health, Inc., priority 2021, published 2023).
# Like-named read-outs stand apart in the source and are kept apart here.
# Key:
# [1] = Average plasma concentration of mivorilaner, various daily oral doses (Examples 5 and 11); type: in vivo, dogs; settings: dog, fed; for concentration at 1224 h: 1224 h after initial dose; for concentration at 1440 h: 1440 h after initial dose; for concentration at 0 h: 0 h after initial dose; for concentration at 72 h: 72 h after initial dose; for concentration at 120 h: 120 h after initial dose; for concentration at 168 h: 168 h after initial dose; for concentration at 336 h: 336 h after initial dose; for concentration at 504 h: 504 h after initial dose; for concentration at 720 h: 720 h after initial dose; for concentration at 888 h: 888 h after initial dose; for concentration at 1056 h: 1056 h after initial dose
# [2] = Plasma concentration of mivorilaner, 0.75 mg/kg daily oral (Examples 4 and 10); type: in vivo, dogs; settings: dog, 0.75 mg/kg/day
# [3] = system: Ctenocephalides felis; assay: Efficacy of isoxazoline (mivorilaner) per os to dogs against Ctenocephalides felis (Example 10); type: in vivo; settings: 0.75 mg/kg/day oral
# Text: Methods: A pool of 14 dogs are to be preliminarily infested with ˜100 unfed adult C. felis in order to identify dogs that can suitably sustain a reliable infestation rate, defined as approximately 50% fleas being live at the end of a 48-hour period. The 12 dogs with the highest live flea counts are to be selected for inclusion in the study. The dogs are to be divided into a control group and a treatment group.
# The dogs are to be housed individually during the study period and are to be fed a commercial dry dog food ration with ad libitum access to water.
# Each dog in the treatment group is to receive by mouth a liquid formulation of isoxazoline. The dosage of 0.75 mg/kg is to be administered to the dogs on each of days 0-29.
# Dogs in the control group are not to receive isoxazoline or any other flea control treatment. Each dog in the treatment group is to be offered its daily ration (dry food) and the individual doses of liquid formulation are to be administered after the individual dog has eaten at least 25% of its total daily ration. After receiving the dose of isoxazoline, the dogs are to be allowed to continue eating. This mimics incorporating the isoxazoline in feed. […]
# Results: referring now to FIG. 16, the arithmetic mean efficacy in reduction of live adult flea counts is shown. The Percent Efficacy is calculated according to the formula: […]
compound,measurement,setting,value
"O=C(CNC(=O)c1sc(C2=NO[C@@](c3cc(Cl)c(F)c(Cl)c3)(C(F)(F)F)C2)c2c1CCC2)NCC(F)F [mivorilaner, 3-[(5S)-5-(3,5-dichloro-4-fluorophenyl)-5-(trifluoromethyl)-4,5-dihydroisoxazol-3-yl]-N-[2-[(2,2-difluoroethyl)amino]-2-oxoethyl]-5,6-dihydro-4H-cyclopenta[c]thiophene-1-carboxamide]",concentration at 1224 h,"[1]; Group 2, 0.125 mg/kg/day oral",486 ng/mL
same,concentration at 1440 h,"[1]; Group 2, 0.125 mg/kg/day oral",898 ng/mL
same,concentration at 0 h,"[1]; Group 3, 0.25 mg/kg/day oral",0 ng/mL
same,concentration at 72 h,"[1]; Group 3, 0.25 mg/kg/day oral",283 ng/mL
same,concentration at 120 h,"[1]; Group 3, 0.25 mg/kg/day oral",450 ng/mL
same,concentration at 168 h,"[1]; Group 3, 0.25 mg/kg/day oral",579 ng/mL
same,concentration at 336 h,"[1]; Group 3, 0.25 mg/kg/day oral",883 ng/mL
same,concentration at 504 h,"[1]; Group 3, 0.25 mg/kg/day oral",878 ng/mL
same,concentration at 720 h,"[1]; Group 3, 0.25 mg/kg/day oral",1020 ng/mL
same,concentration at 888 h,"[1]; Group 3, 0.25 mg/kg/day oral",1000 ng/mL
same,concentration at 1056 h,"[1]; Group 3, 0.25 mg/kg/day oral",945 ng/mL
same,concentration at 1224 h,"[1]; Group 3, 0.25 mg/kg/day oral",1040 ng/mL
same,concentration at 1440 h,"[1]; Group 3, 0.25 mg/kg/day oral",999 ng/mL
same,concentration at 0 h,"[1]; Group 4, 0.5 mg/kg/day oral",0 ng/mL
same,concentration at 72 h,"[1]; Group 4, 0.5 mg/kg/day oral",474 ng/mL
same,concentration at 120 h,"[1]; Group 4, 0.5 mg/kg/day oral",763 ng/mL
same,concentration at 168 h,"[1]; Group 4, 0.5 mg/kg/day oral",888 ng/mL
same,concentration at 336 h,"[1]; Group 4, 0.5 mg/kg/day oral",1460 ng/mL
same,concentration at 504 h,"[1]; Group 4, 0.5 mg/kg/day oral",1630 ng/mL
same,concentration at 720 h,"[1]; Group 4, 0.5 mg/kg/day oral",1870 ng/mL
same,concentration at 888 h,"[1]; Group 4, 0.5 mg/kg/day oral",1990 ng/mL
same,concentration at 1056 h,"[1]; Group 4, 0.5 mg/kg/day oral",2010 ng/mL
same,concentration at 1224 h,"[1]; Group 4, 0.5 mg/kg/day oral",2320 ng/mL
same,concentration at 1440 h,"[1]; Group 4, 0.5 mg/kg/day oral",2300 ng/mL
same,concentration at 0 h,"[1]; Group 5, 1.0 mg/kg/day oral",0 ng/mL
same,concentration at 72 h,"[1]; Group 5, 1.0 mg/kg/day oral",951 ng/mL
same,concentration at 120 h,"[1]; Group 5, 1.0 mg/kg/day oral",1510 ng/mL
same,concentration at 168 h,"[1]; Group 5, 1.0 mg/kg/day oral",1790 ng/mL
same,concentration at 336 h,"[1]; Group 5, 1.0 mg/kg/day oral",2690 ng/mL
same,concentration at 504 h,"[1]; Group 5, 1.0 mg/kg/day oral",3020 ng/mL
same,concentration at 720 h,"[1]; Group 5, 1.0 mg/kg/day oral",3760 ng/mL
same,concentration at 888 h,"[1]; Group 5, 1.0 mg/kg/day oral",3860 ng/mL
same,concentration at 1056 h,"[1]; Group 5, 1.0 mg/kg/day oral",4260 ng/mL
same,concentration at 1224 h,"[1]; Group 5, 1.0 mg/kg/day oral",4840 ng/mL
same,concentration at 1440 h,"[1]; Group 5, 1.0 mg/kg/day oral",4140 ng/mL
same,concentration at 3 day,"[2]; 0.75 mg/kg/day oral days 0-29, Day 3, read-out: Mivorilaner Concentration, Average of 6 canines",674 ng/mL
same,concentration at 3 day,"[2]; 0.75 mg/kg/day oral days 0-29, Day 3, read-out: Mivorilaner Concentration, individual canines",648 ng/mL
same,concentration at 7 day,"[2]; 0.75 mg/kg/day oral days 0-29, Day 7, read-out: Mivorilaner Concentration, Average of 6 canines",1450 ng/mL
same,concentration at 7 day,"[2]; 0.75 mg/kg/day oral days 0-29, Day 7, read-out: Mivorilaner Concentration, individual canines",1620 ng/mL
same,concentration at 14 day,"[2]; 0.75 mg/kg/day oral days 0-29, Day 14, read-out: Mivorilaner Concentration, Average of 6 canines",2100 ng/mL
same,concentration at 14 day,"[2]; 0.75 mg/kg/day oral days 0-29, Day 14, read-out: Mivorilaner Concentration, individual canines",2530 ng/mL
same,concentration at 21 day,"[2]; 0.75 mg/kg/day oral days 0-29, Day 21, read-out: Mivorilaner Concentration, Average of 6 canines",2720 ng/mL
same,concentration at 21 day,"[2]; 0.75 mg/kg/day oral days 0-29, Day 21, read-out: Mivorilaner Concentration, individual canines",2820 ng/mL
same,concentration at 30 day,"[2]; 0.75 mg/kg/day oral days 0-29, Day 30, read-out: Mivorilaner Concentration, Average of 6 canines",2630 ng/mL
same,concentration at 37 day,"[2]; 0.75 mg/kg/day oral days 0-29, Day 37, read-out: Mivorilaner Concentration, Average of 6 canines",2020 ng/mL
same,concentration at 37 day,"[2]; 0.75 mg/kg/day oral days 0-29, Day 37, read-out: Mivorilaner Concentration, individual canines",2410 ng/mL
same,day after initial administration by which the treatment is effective (reduction of live adult flea counts),[3],≤ 4 days
